Where a name gives a salt, the structure may show the parent alone. Read-outs that look alike come from different tables or passages of the source.
Tests used:
[1] = negative number: withdrawn from the market; higher positive numbers: greater DILI concern; cited from earlier work
[2] = test system: primary human hepatocytes in MPCCs; settings: (ref 19), cited from earlier work; for TC50 in MPCCs ATP: concentration at which activity decreases by 50% of DMSO-only controls
[3] = test system: iHeps in iMPCCs; assay: Drug toxicity screening in iMPCCs (albumin, ATP, urea; binary decision and TC50)
[4] = total human plasma concentration; cited from earlier work
[5] = test system: iHeps in iMPCCs
[6] = test system: primary hepatocytes (HUM4011)
[7] = test system: iHeps in iCCs
[8] = test system: iMPCCs

Structure (SMILES): CC(C(=O)O)c1ccc(-c2ccccc2)c(F)c1 (stereo not drawn) [Flurbiprofen]
- DILI Sev (DILI severity scores from the LTKB of the FDA) [1]: 3
- TC50 in MPCCs Albumin [2]: 2406.8 µM
- TC50 in MPCCs Urea [2]: 2459.0 µM
- TC50 in MPCCs ATP [2]: 3351.1 µM
- TC50 in MPCCs Albumin [3]: 5683.4 µM
- Cmax [4]: 57.4 µM
- comparison of urea TC50 values, iHeps versus primary hepatocytes ([5]; human, 6 days): higher TC50 in iHeps

Structure (SMILES): O=C(O)/C=C\C(=O)O [Maleic acid]
- toxicity call in another donor of primary hepatocytes [6]: borderline positive
- Cmax [4]: 1 µM
- Model predictions iMPCC (binary decision) [5]: −

Structure (SMILES): Nc1ccc(S(=O)(=O)c2ccc(N)cc2)cc1 [Dapsone]
- toxicity call in another donor of primary hepatocytes [6]: false negative
- Cmax [4]: 6.01 µM
- Model predictions iMPCC (binary decision) [5]: −
- toxicity call in iMPCCs / iHeps [5]: false negative result

Structure (SMILES): Cc1cccc(Nc2ccccc2C(=O)O)c1C [Mefenamic acid]
- TC50 in MPCCs Albumin [2]: 1291.9 µM
- TC50 in MPCCs Urea [2]: 1255.1 µM
- TC50 in MPCCs ATP [2]: 1393.4 µM
- Cmax [4]: 27 µM
- TC50 in MPCCs ATP ([5]; human, 6 days): 2551.9 µM
- TC50 in MPCCs Albumin ([5]; human, 6 days): 410.3 µM
- TC50 in MPCCs Urea ([5]; human, 6 days): 572.3 µM

Structure (SMILES): CC(=O)Nc1nnc(S(N)(=O)=O)s1 [Acetazolamide]
- toxicity call in another donor of primary hepatocytes [6]: false negative
- Cmax [4]: 135 µM
- Model predictions iMPCC (binary decision) [5]: −

Structure (SMILES): C[C@]12C=CC(=O)C=C1CC[C@@H]1[C@@H]2C(=O)C[C@@]2(C)[C@H]1CC[C@]2(O)C(=O)CO [Prednisone]
- Cmax [4]: 0.068 µM
- Model predictions iMPCC (binary decision) [5]: −

Structure (SMILES): C[C@]12CC[C@@H]3c4ccc(O)cc4CC[C@H]3[C@@H]1CCC2=O [Estrone]
- Cmax [4]: 0.022 µM

Structure (SMILES): C#C[C@]1(O)CC[C@H]2[C@@H]3CCC4=Cc5oncc5C[C@]4(C)[C@H]3CC[C@@]21C [Danazol]
- Cmax [4]: 0.074 µM

Structure (SMILES): CN1C(C(=O)Nc2ccccn2)=C(O)c2ccccc2S1(=O)=O [Piroxicam]
- DILI Sev (DILI severity scores from the LTKB of the FDA) [1]: 3
- Cmax [4]: 5.13 µM
- toxicity call in iMPCCs / iHeps [5]: toxic

Structure (SMILES): O=C1CC2(CCCC2)CC(=O)N1CCCCN1CCN(c2ncccn2)CC1 [Buspirone]
- DILI Sev (DILI severity scores from the LTKB of the FDA) [1]: 3
- Cmax [4]: 0.005 µM

Structure (SMILES): CC(=O)O[C@]1(C(C)=O)CC[C@H]2[C@@H]3C=C(Cl)C4=CC(=O)[C@@H]5C[C@@H]5[C@]4(C)[C@H]3CC[C@@]21C [Cyproterone acetate]
- TC50 in MPCCs Urea [2]: 41.0 µM
- TC50 in MPCCs ATP [2]: 39.1 µM
- Model predictions iCC (binary decision) [7]: −
- toxicity call in iCCs [7]: non-toxic
- Cmax [4]: 0.656 µM
- toxicity call in iMPCCs / iHeps [5]: toxic
- TC50 in MPCCs Albumin ([5]; human, 6 days): 51.0 µM
- TC50 in MPCCs Urea ([5]; human, 6 days): 33.1 µM

Structure (SMILES): CC(C)NCC(O)COc1cccc2ccccc12 (stereo not drawn) [Propranolol]
- Cmax [4]: 0.201 µM
- Model predictions iMPCC (binary decision) [5]: −

Structure (SMILES): C[C@H](CS)C(=O)N1CCC[C@H]1C(=O)O [Captopril]
- Cmax [4]: 4.28 µM

Structure (SMILES): CCc1oc2ccccc2c1C(=O)c1cc(Br)c(O)c(Br)c1 [Benzbromarone]
- DILI Sev (DILI severity scores from the LTKB of the FDA) [1]: −2
- TC50 in MPCCs Albumin [2]: 31.3 µM
- TC50 in MPCCs Urea [2]: 27.9 µM
- TC50 in MPCCs ATP [2]: 15.1 µM
- Cmax [4]: 4.36 µM

Structure (SMILES): CN(C)CCCN1c2ccccc2CCc2ccc(Cl)cc21 [Clomipramine]
- TC50 in MPCCs Albumin [2]: 9.4 µM
- TC50 in MPCCs Urea [2]: 9.9 µM
- TC50 in MPCCs ATP [2]: 12.0 µM
- TC50 in MPCCs Albumin ([5]; human, 6 days): 9.4 µM
- TC50 in MPCCs Urea ([5]; human, 6 days): 13.8 µM

Structure (SMILES): CC(=O)Nc1ccc(O)cc1 [Acetaminophen]
- albumin production in iMPCCs [8]: declined significantly
- urea production in iMPCCs [8]: declined significantly

Structure (SMILES): CN(C)CCCN1c2ccccc2CCc2ccccc21 [Imipramine HCl]
- DILI Sev (DILI severity scores from the LTKB of the FDA) [1]: 3

Structure (SMILES): Cn1cc[nH]c1=S [Methimazole]
- Cmax [4]: 1.87 µM

Structure (SMILES): O=C(O)c1cn(C2CC2)c2cc(N3CCNCC3)c(F)cc2c1=O [Ciprofloxacin HCl]
- TC50 in MPCCs ATP ([5]; human, 6 days): 804.2 µM
- TC50 in MPCCs Albumin ([5]; human, 6 days): 525.3 µM
- TC50 in MPCCs Urea ([5]; human, 6 days): 326.3 µM

Structure (SMILES): NC(=O)NO [Hydroxyurea]
- TC50 in MPCCs Albumin [2]: 28616.2 µM
- TC50 in MPCCs Urea [2]: 19647.8 µM
- TC50 in MPCCs ATP [2]: 7407.0 µM
- Cmax [4]: 794 µM
- TC50 in MPCCs ATP ([5]; human, 6 days): 49358.3 µM
- TC50 in MPCCs Albumin ([5]; human, 6 days): 18398.4 µM

Structure (SMILES): CCOc1ccc(NC(C)=O)cc1 [Phenacetin]
- TC50 in MPCCs Urea [2]: 1076.1 µM
- Model predictions iCC (binary decision) [7]: −
- toxicity call in iCCs [7]: not identified as toxic
- Cmax [4]: 13.4 µM
- TC50 in MPCCs Albumin ([5]; human, 6 days): 1213.3 µM
- TC50 in MPCCs Urea ([5]; human, 6 days): 253.3 µM

Structure (SMILES): Clc1ccc(COC(Cn2ccnc2)c2ccc(Cl)cc2Cl)c(Cl)c1 (stereo not drawn) [Miconazole]
- Cmax [4]: 0.024 µM
- Model predictions iMPCC (binary decision) [5]: −

From US10266806B2, “Stem cell-derived hepatocytes in co-culture and uses thereof” (Colorado State University Research Foundation, priority 2014, dated 2019)
